# Patent US3941776A, “Resolution/racemization of aminolactam compounds” (Allied Chemical Corporation, priority 1974, dated 1976)
# Experiments:
# Assay type in all cases: physicochemical
# [1] = Racemization of L-ACL in ACL/NiCl2 solution with sodium methoxide (Example 1, Table 1); details: 0.20 M NiCl2
# Method: A sample of 0.702g. […] The molar ratio of ACL to NiCl2 in this solution is 3.5. […] Samples of 2.0 ml each of the solution were sealed and placed in a 60°C. (50° and 40°) bath. At different time intervals the samples were taken from the bath to determine the extent of racemization of L-ACL. To this end each sample was quenched and adjusted to 5.0 ml with 1N.HCl. […] The latter correlation is indicative of the importance of rendering Ni^+^+ coordinately saturated. It should be noted that even at temperatures as low as 40°C. suitable reaction rates are obtained and, in general, a temperature range of about 40° to about 95°C. may be used.
# [2] = Racemization of L-ACL with NiCl2 and base from ion exchange resin (Example 4)
# Method: a. A 20 ml ethanol solution containing 8 mmol (D,L-ACL)3 NiCl2 and 8 mmol D,L-ACL was passed through a strongly basic [quaternary ammonium hydroxide type (ANGA-542*)] ion exchange column in about 1 hour. The complex solution was followed by 15 ml ethanol and the combined eluent brought to 50 ml in a volumetric flask.
# A reaction solution was prepared from 0.518g (2 mmol) of 50% L-ACL (88% optically pure) in ethanol, 1.13g (4.4 mmol) 50% D,L-ACL in ethanol and 2.48 ml 0.645 M in NiCl2.H2 O in ethanol. This was brought to reflux and 2.5 ml of the solution described above was added. The final quantities thus are total ACL 8 mmol, Ni^+^2, 2 mmol, ^-OH (free or bound to Ni^+^2), 0.3 mmol and Cl^-. 3.7 Mmol, in a total volume of 6.7 ml.
# b. A 10 ml sample of 0.90 M NiCl2. H2 O in ethanol, was passed through a weakly basic ion exchange resin (IR-45, supplied by Rohm and Haas Company). The eluent had pH 5.5 (measured with a glass electrode in ethanol; the pH of untreated NiCl2 solution was about 3.7). A 1 ml aliquot of the eluent, containing 0.15 m atoms of Ni^+^+, was mixed with 78 mg (0.60 mmols) of L-ACL in 1 ml methanol. The mixture was heated in a sealed vial at 80°C. for 30 minutes.
# [3] = Racemization of L-ACL.HCl/L-ACL with catalysts (Examples 13-42, Table IV); details: 15 minutes at 70°C, Cu^II (5-nitrosalicylaldehyde)2, H2O/dimethylformamide 20/80
# Method: A solution containing 0.160g (1.25 mmol) L-ACL, 0.206g (1.25 mmol) L-ACL.HCl and […] of Cu^II (5-nitrosalicylaldehyde)2 in 20/80 (v/v) H2 O/dimethylformamide (10 ml overall volume) was heated for 15 minutes at 70°C.
# Following the procedure of Example 13, racemization of L-ACL.HCl was conducted in the presence of various catalysts and under various conditions of temperature and concentration; the data is summarized in Table IV.
SMILES,"Racemization Rate t1/2 ([1]; ACL/NiCl2 mole ratio 3.5, Ethanol, 60°C)","Racemization Rate t1/2 ([1]; ACL/NiCl2 mole ratio 3.5, Methanol, 40°C)","Racemization Rate t1/2 ([1]; ACL/NiCl2 mole ratio 3.5, Methanol, 50°C)","Racemization Rate t1/2 ([1]; ACL/NiCl2 mole ratio 4, Ethanol, 60°C)","Racemization Rate t1/2 ([1]; ACL/NiCl2 mole ratio 4, Methanol, 40°C)","Racemization Rate t1/2 ([1]; ACL/NiCl2 mole ratio 4, Methanol, 50°C)","Racemization Rate t1/2 ([1]; ACL/NiCl2 mole ratio 5, Ethanol, 60°C)","Racemization Rate t1/2 ([1]; ACL/NiCl2 mole ratio 5, Methanol, 40°C)","Racemization Rate t1/2 ([1]; ACL/NiCl2 mole ratio 5, Methanol, 50°C)","Racemization Rate t1/2 ([1]; ACL/NiCl2 mole ratio 6, Ethanol, 60°C)","Racemization Rate t1/2 ([1]; ACL/NiCl2 mole ratio 6, Methanol, 40°C)","Racemization Rate t1/2 ([1]; ACL/NiCl2 mole ratio 6, Methanol, 50°C)","extent of racemization ([2]; 80°C, 30 minutes, NiCl2 eluent from IR-45 resin, methanol)","t1/2 of racemization ([2]; ethanol, reflux (~80°C), NiCl2, base from ANGA-542 resin)",extent of racemization [3]
"N[C@H]1CCCCNC1=O [L-ACL, L-α-amino-ε-caprolactam]",1.17 h,16.73 h,5.67 h,0.717 h,12.8 h,4.33 h,0.433 h,9.72 h,2.7 h,0.367 h,10.2 h,2.83 h,completely racemized,0.175 h,
"Cl.N[C@H]1CCCCNC1=O [L-ACL.HCl, L-α-amino-ε-caprolactam hydrochloride]",,,,,,,,,,,,,,,complete racemization
